# From patent US20100261706A1, “SUBSTITUTED TETRACYCLIC 1H-INDENO [1,2-B]PYRIDINE-2(5H)-ONE ANALOGS THEREOF AND USES THEREOF” (INOTEK PHARMACEUTICALS CORPORATION, priority 2008, published 2010)
# Where a name gives a salt, the structure may show the parent alone.
# Target: T1, PARP (Mus musculus, UniProt P11103)
# T1 construct: PARP Activity in Cultured Macrophages, Using a Whole-Cell Based Assay; endogenous in cells; host or cells: murine RAW macrophages (ATCC)
# Assay: PARP activity in cultured macrophages, whole-cell based assay (3H-NAD+ incorporation after hydrogen peroxide)
# Conditions: murine RAW macrophages, 1 hour pretreatment, hydrogen peroxide 0.5 mM
# Procedure: Effect of Tetracyclic 1H-indeno[1,2-b]pyridine-2(511)-one Analogs on PARP Activity in Cultured Macrophages, Using a Whole-Cell Based Assay
# The murine RAW macrophages (ATCC, American Type Culture Collection, Manassas, Va.) were grown in […] (Invitrogen Life Technologies; Carlsbad, Calif.) medium supplemented with 10% heat-inactivated FBS, 2 mM L-glutamine, and 100 U/ml of penicillin and streptomycin. Cells, between passages 5 and 15, were seeded at a density of 250,000 cells/well in 12 well plates and allowed to grow 48 hours before use. Growth medium was changed on the day of use. Cells were treated with a tetracyclic 1H-indeno[1,2-b]pyridine-2(5H)-one analog diluted in a growth medium supplemented with 10% fetal bovine serum (FBS) for 1 hour prior to the addition of hydrogen peroxide (0.5 mM) for a further 25 minutes. For the measurement of PARP activity, media was removed and replaced with 0.5 ml of the assay buffer (56 mM HEPES-pH 7.5, 28 mM KCl, 28 mM NaCl, 2 mM MgCl2, 0.01% digitonin, and 0.5 μCi/ml of ^3H-NAD^+) for 20 minutes. After aspirating the assay buffer, cells were lysed and transferred to eppendorf tubes containing 250 μl of 50% ice-cold trichloroacetic acid (TCA), which were then placed at 4° C. for 4 hours. Samples were centrifuged at 10,000 g for 10 minutes and supernatant removed. The pellets were washed twice with 500 μl of ice-cold 5% w/v TCA. The pellets were then solubilized in 250 μl of NaOH (0.1 M) containing 2% SDS overnight at 37° C. and the PARP activity was then determined by measuring the radioactivity incorporated using a Wallac scintillation counter. The solubilized protein (250 μl) was mixed with 5 ml of scintillation fluid (ScintiSafe Plus, Fisher Scientific) before being counted for 3 minutes. EC50 values were determined from a dose-response curve.
# T1 sequence (P11103 whole entry): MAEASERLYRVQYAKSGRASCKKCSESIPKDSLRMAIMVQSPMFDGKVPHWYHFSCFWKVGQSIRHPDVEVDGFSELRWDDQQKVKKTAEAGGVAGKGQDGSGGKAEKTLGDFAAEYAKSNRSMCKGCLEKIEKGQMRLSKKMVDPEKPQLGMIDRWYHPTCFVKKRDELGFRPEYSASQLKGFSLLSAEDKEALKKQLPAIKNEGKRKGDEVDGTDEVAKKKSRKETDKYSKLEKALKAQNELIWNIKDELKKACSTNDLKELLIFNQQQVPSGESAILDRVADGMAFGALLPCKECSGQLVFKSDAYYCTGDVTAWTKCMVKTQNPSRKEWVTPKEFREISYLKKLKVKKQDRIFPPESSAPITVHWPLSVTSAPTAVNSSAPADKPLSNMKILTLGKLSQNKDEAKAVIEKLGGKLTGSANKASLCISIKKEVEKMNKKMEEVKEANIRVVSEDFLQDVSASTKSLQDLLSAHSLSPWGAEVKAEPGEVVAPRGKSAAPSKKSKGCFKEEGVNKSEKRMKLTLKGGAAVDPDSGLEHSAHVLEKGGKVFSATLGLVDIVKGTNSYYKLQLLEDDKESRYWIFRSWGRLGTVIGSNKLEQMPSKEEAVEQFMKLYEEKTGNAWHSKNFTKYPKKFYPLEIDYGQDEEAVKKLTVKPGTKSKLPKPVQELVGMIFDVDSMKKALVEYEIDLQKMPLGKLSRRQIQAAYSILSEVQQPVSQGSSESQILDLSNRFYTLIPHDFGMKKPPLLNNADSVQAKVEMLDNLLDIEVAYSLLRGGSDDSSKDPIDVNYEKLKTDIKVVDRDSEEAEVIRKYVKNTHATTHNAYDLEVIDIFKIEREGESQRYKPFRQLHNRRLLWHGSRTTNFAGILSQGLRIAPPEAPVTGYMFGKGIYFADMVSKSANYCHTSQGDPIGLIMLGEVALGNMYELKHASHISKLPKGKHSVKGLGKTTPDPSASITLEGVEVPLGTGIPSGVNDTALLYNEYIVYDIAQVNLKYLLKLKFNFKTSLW
row,Compound,EC50 [µM]
1,CN(C)Cc1cccc2c1Cc1c-2[nH]c(=O)c2c1CCCC2 [Example 28],0.035
2,"O=c1[nH]c2c(c3ccsc13)Cc1c(CN3CCC(C(F)(F)F)CC3)cccc1-2 [Example 47, 9-((4-(trifluoromethyl)piperidin-1-yl)methyl)-5,10-dihydro-4H-indeno[1,2-b]thieno[3,2-d]pyridin-4-one]",0.009
3,"COC(=O)c1cccc2c1Cc1c-2[nH]c(=O)c2c1CCCC2 [Example 63, methyl 5-oxo-2,3,4,5,6,11-hexahydro-1H-indeno[1,2-c]isoquinoline-10-carboxylate]",0.1
4,"COCCNCc1cccc2c1Cc1c-2[nH]c(=O)c2c1CCCC2 [Example 27, 10-((2-methoxyethylamino)methyl)-3,4,6,11-tetrahydro-1H-indeno[1,2-c]isoquinolin-5(2H)-one]",0.016
5,"O=c1[nH]c2c(c3c1CCCC3)Cc1cc(CN3CCC(F)CC3)ccc1-2 [Example 66, 9-((4-fluoropiperidin-1-yl)methyl)-3,4,6,11-tetrahydro-1H-indeno[1,2-c]isoquinolin-5(2H)-one]",0.0375
6,"O=c1[nH]c2c(c3c1CCCC3)Cc1c(CN3CCCCCCC3)cccc1-2 [Example 10, 10-(azocan-1-ylmethyl)-3,4,6,11-tetrahydro-1H-indeno[1,2-c]isoquinolin-5(2H)-one]",0.037
7,"O=c1[nH]c2c(c3c1CCCC3)Cc1cc(CO)ccc1-2 [Example 33, 9-(hydroxymethyl)-3,4,6,11-tetrahydro-1H-indeno[1,2-c]isoquinolin-5(2H)-one]",0.095
8,"O=c1[nH]c2c(c3c1CCCC3)Cc1c(CN3CCCC3)cccc1-2 [Example 8, 10-(pyrrolidin-1-ylmethyl)-3,4,6,11-tetrahydro-1H-indeno[1,2-c]isoquinolin-5(2H)-one hydrochloride]",0.0085
9,"O=c1[nH]c2c(c3c1CCCC3)Cc1cc(CN3CCC(F)(F)CC3)ccc1-2 [Example 65, 9-((4,4-difluoropiperidin-1-yl)methyl)-3,4,6,11-tetrahydro-1H-indeno[1,2-c]isoquinolin-5(2H)-one]",0.748
10,"O=c1[nH]c2c(c3c1CCCC3)Cc1cc(CNC3CCCC3)ccc1-2 [Example 40, 9-((cyclopentylamino)methyl)-3,4,6,11-tetrahydro-1H-indeno[1,2-c]isoquinolin-5(2H)-one]",0.06
11,"CCCCN1CCN(Cc2ccc3c(c2)Cc2c-3[nH]c(=O)c3c2CCCC3)CC1 [Example 44, 9-((4-butylpiperazin-1-yl)methyl)-3,4,6,11-tetrahydro-4H-indeno[1,2-c]isoquinolin-5(2H)-one]",0.2
12,"CCOC1CCN(Cc2cccc3c2Cc2c-3[nH]c(=O)c3c2CCCC3)CC1 [Example 14, 10-((4-ethoxypiperidin-1-yl)methyl)-3,4,6,11-tetrahydro-1H-indeno[1,2-c]isoquinolin-5(2H)-one mesylate]",0.0127
13,"O=c1[nH]c2c(c3c1CCCC3)Cc1c(CN3CC[C@H](F)C3)cccc1-2 [Example 15, (S)-10-((3-fluoropyrrolidin-1-yl)methyl)-3,4,6,11-tetrahydro-1H-indeno[1,2-c]isoquinolin-5(2H)-one]",0.0117
14,"O=c1[nH]c2c(c3c1CCCC3)Cc1c(CN3CCC(F)(F)CC3)cccc1-2 [Example 12, 10-((4,4-difluoropiperidin-1-yl)methyl)-3,4,6,11-tetrahydro-1H-indeno[1,2-c]isoquinolin-5(2H)-one]",0.749
15,"O=c1[nH]c2c(c3c1CCCC3)Cc1cc(CN3CCOCC3)ccc1-2 [Example 37, 9-(morpholinomethyl)-3,4,6,1′-tetrahydro-4H-indeno[1,2-c]isoquinolin-5(2H)-one]",0.3
16,"O=c1[nH]c2c(c3c1CCCC3)Cc1cc(CN3CCC(O)CC3)ccc1-2 [Example 38, 9-((4-hydroxypiperidin-1-yl)methyl)-3,4,6,11-tetrahydro-1H-indeno[1,2-c]isoquinolin-5(2H)-one]",0.3

row,Compound,EC50 [µM]
1,"COCCN1CCN(Cc2ccc3c(c2)Cc2c-3[nH]c(=O)c3c2CCCC3)CC1 [Example 35, 9-((4-(2-methoxyethyl)piperazin-1-yl)methyl)-3,4,6,11-tetrahydro-1H-indeno[1,2-c]isoquinolin-5(2H)-one]",0.3
2,"O=c1[nH]c2c(c3c1CCCC3)Cc1c(CN3CCCCC3)cccc1-2 [Example 4, 10-(piperidin-1-ylmethyl)-3,4,6,11-tetrahydro-1H-indeno[1,2-c]isoquinolin-5(2H)-one hydrochloride]",0.0015
3,"O=c1[nH]c2c(c3c1CCCC3)Cc1c(CN3CCC(N4CCCCC4)CC3)cccc1-2 [Example 22, 10-(1,4′-bipiperidin-1′-ylmethyl)-3,4,6,11-tetrahydro-1H-indeno[1,2-c]isoquinolin-5(2H)-one dihydrochloride]",0.0078
4,"O=c1[nH]c2c(c3ncccc13)Cc1c(CO)cccc1-2 [Example 57, 10-(hydroxymethyl)-6,11-dihydro-5H-indeno[1,2-h][1,6]naphthyridin-5-one]",0.334
5,"O=c1[nH]c2c(c3sccc13)Cc1c(CN3CCC(C(F)(F)F)CC3)cccc1-2 [Example 54, 9-((4-(trifluoromethyl)piperidin-1-yl)methyl)-5,10-dihydro-4H-indeno[1,2-b]thieno[2,3-d]pyridin-4-one]",> 0.5
6,"O=c1[nH]c2c(c3c1CCCC3)Cc1cc(CN3CCCC3)ccc1-2 [Example 39, 9-(pyrrolidin-1-ylmethyl)-3,4,6,11-tetrahydro-1H-indeno[1,2-c]isoquinolin-5(2H)-one]",0.1
7,"CCCN1CCN(Cc2ccc3c(c2)Cc2c-3[nH]c(=O)c3c2CCCC3)CC1 [Example 34, 9-((4-propylpiperazin-1-yl)methyl)-3,4,6,11-tetrahydro-M-indeno[1,2-c]isoquinolin-5(2H)-one]",0.2
8,"O=c1[nH]c2c(c3c1CCCC3)Cc1c(CN3CCNCC3)cccc1-2 [Example 31, 10-(piperazin-1-ylmethyl)-3,4,6,11-tetrahydro-1H-indeno[1,2-c]isoquinolin-5(2H)-one]",0.08
9,"CC(C)(N)c1cccc2c1Cc1c-2[nH]c(=O)c2c1CCCC2 [Example 46, 10-(2-aminopropan-2-yl)-3,4,6,11-tetrahydro-1H-indeno[1,2-c]isoquinolin-5(2H)-one]",0.008
10,"COC(=O)c1ccc2c(c1)Cc1c-2[nH]c(=O)c2c1CCCC2 [Example 30, methyl 5-oxo-2,3,4,5,6,11-hexahydro-1H-indeno[1,2-c]isoquinoline-9-carboxylate]",0.25
11,"O=c1[nH]c2c(c3c1CCCC3)Cc1c(CO)cccc1-2 [Example 29, 10-(hydroxymethyl)-3,4,6,11-tetrahydro-1H-indeno[1,2-c]isoquinolin-5(2H)-one]",0.025
12,"O=c1[nH]c2c(c3c1CCCC3)Cc1c(CN3CCCC3)cccc1-2 [Example 6, 10-(pyrrolidin-1-ylmethyl)-3,4,6,11-tetrahydro-1H-indeno[1,2-c]isoquinolin-5(2H)-one]",0.00846
13,"O=c1[nH]c2c(c3c1CCCC3)Cc1c(CN3CCCCCC3)cccc1-2 [Example 5, 10-(azepan-1-ylmethyl)-3,4,6,11-tetrahydro-1H-indeno[1,2-c]isoquinolin-5(2H)-one]",0.0078
14,"O=c1[nH]c2c(c3c1CCCC3)Cc1c(CN3CCSC3)cccc1-2 [Example 13, 10-(thiazolidin-3-ylmethyl)-3,4,6,11-tetrahydro-1H-indeno[1,2-c]isoquinolin-5(2H)-one]",0.169
15,"CCN(CC)Cc1ccc2c(c1)Cc1c-2[nH]c(=O)c2c1CCCC2 [Example 64, 9-((diethylamino)methyl)-3,4,6,11-tetrahydro-1H-indeno[1,2-c]isoquinolin-5(2H)-one]",0.00448

# Target: T2, PARP-1 enzyme (Homo sapiens, UniProt P09874)
# T2 construct: purchased Trevigen, Gaithersburg, Md
# T2 sequence (P09874 whole entry): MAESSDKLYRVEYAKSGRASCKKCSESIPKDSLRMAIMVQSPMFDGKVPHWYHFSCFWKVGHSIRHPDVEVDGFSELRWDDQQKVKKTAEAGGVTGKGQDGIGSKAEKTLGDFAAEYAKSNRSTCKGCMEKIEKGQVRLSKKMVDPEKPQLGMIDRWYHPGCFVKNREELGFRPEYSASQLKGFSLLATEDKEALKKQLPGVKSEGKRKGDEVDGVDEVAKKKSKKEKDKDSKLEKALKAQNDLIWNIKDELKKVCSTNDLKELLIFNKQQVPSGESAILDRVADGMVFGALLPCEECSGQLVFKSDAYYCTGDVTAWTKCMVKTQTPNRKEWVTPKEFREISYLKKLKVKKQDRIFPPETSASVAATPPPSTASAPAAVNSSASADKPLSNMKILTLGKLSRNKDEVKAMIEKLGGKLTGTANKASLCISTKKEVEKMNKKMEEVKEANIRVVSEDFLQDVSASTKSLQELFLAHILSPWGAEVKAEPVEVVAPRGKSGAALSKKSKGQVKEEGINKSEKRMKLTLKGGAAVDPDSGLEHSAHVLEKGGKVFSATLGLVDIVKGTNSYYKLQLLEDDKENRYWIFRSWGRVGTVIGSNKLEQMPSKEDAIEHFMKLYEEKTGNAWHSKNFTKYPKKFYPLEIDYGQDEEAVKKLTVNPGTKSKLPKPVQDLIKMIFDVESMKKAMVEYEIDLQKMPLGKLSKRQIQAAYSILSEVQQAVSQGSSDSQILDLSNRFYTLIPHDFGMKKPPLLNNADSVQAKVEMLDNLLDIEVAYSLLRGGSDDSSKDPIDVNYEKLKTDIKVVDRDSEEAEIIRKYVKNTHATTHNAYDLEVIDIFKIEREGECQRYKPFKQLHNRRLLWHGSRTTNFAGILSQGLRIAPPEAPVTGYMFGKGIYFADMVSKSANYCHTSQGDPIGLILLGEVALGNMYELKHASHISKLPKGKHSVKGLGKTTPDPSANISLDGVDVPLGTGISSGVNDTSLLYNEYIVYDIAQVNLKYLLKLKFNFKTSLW
# Assay: Purified PARP-1 enzyme inhibition assay (Trevigen kit, 96 well ELISA plates)
# Type: biochemical
# Conditions: not given
# Procedure: Effect of Tetracyclic 1H-indeno[1,2-b]pyridine-2(5H)-one analogs on PARP Activity in purified PARP-1 enzyme assay
# The potency of inhibition on purified PARP-1 enzyme was subsequently determined for selected compounds, and the potency was compared with INO-1001. The assay was performed in 96 well ELISA plates according to instructions provided with a commercially available PARP-1 inhibition assay kit (Trevigen, Gaithersburg, Md.). Briefly, wells were coated with 1 mg/ml histone (50 μl/well) at 4° C. overnight. Plates were then washed four times with PBS and then blocked by adding 50 μl Strep-Diluent (supplied with the kit). After incubation (1 h, 25° C.), the plates were washed four times with PBS. Appropriate dilutions of compound was combined with 2×PARP cocktail (1.95 mM NAD^+, 50 μM biotinylated NAD^+ in 50 mM TRIS pH 8.0, 25 mM MgCl2) and high specific activity PARP enzyme (both were supplied with the kit) in a volume of 50 μl. The reaction was allowed to proceed for 30 min at room temperature. After 4 washes in PBS, incorporated biotin was detected by peroxidase-conjugated streptavidin (1:500 dilution) and TACS Sapphire substrate. EC50 and IC50 values were determined from a dose-response curve.
row,Compound,IC50 [µM]
1,"O=c1[nH]c2c(c3c1CCCC3)Cc1c(CN3CCC(O)CC3)cccc1-2 [Example 3, 10-((4-hydroxypiperidin-1-yl)methyl)-3,4,6,11-tetrahydro-1H-indeno[1,2-c]isoquinolin-5(2H)-one hydrochloride]",0.0113
